The test system of one data set is Sarcoma cells. Put plainly: Chemotherapeutic effect on subcutaneously inoculated sarcoma cells in ICR mice (tumor weight, i.p. once a day for 5 days). Particulars: for Inhibition rate / Inhibition rate (%) (entry: toxic): once a day for 5 days; for Inhibition rate: tumor weight 5 days after the administration; for Inhibition rate (%) (entry: toxic): 100 mg/kg/day i.p., group of five female ICR mice; for ED30: denominator of MTD/ED30; for ED30 / MTD: doses of the table in mg/kg/day; for ED30 / MTD / Therapeutic index (MTD/ED30): i.p. once a day for 5 days; for MTD: numerator of MTD/ED30; for Therapeutic index (MTD/ED30): ratio MTD/ED30. Format: in vivo, female ICR mice. The method, then:
Chemotherapeutic effect of the organic platinum complex (I) of this invention was investigated as follows.
Sarcoma cells (1.5×10^6 cells) were inoculated subcutaneously at inguinal region of a group of five female mice (ICR mice, five week age). Twenty four hours after the inoculation, a solution of test compound was intraperitoneally administered to the mice once a day for 5 days. The weight of tumor in the mice was measured 5 days after the administration.

Data set [1] can be described thus: Renal function indices (creatinine and urea in blood) in mice. Format: in vivo. As to conditions: dose required to induce 100% increase in the life span. The source says: The organic platinum complex of the invention also has advantageous properties such as less toxicity to kidney, remarkedly higher water solubility and is easily transferred into organs in vivo in comparison with known organic platinum complexes.

Compound `COCCOCC(=O)NC1C(=O)[O][Pt-2]2([NH2+]C3CCCCC3[NH2+]2)[O]C1=O` (stereo not drawn) [Compound 2, [2-[[(methoxyethoxy)acetyl]amino]malonato] (trans-l-1,2-diaminocyclohexane)platinum (II)] registered an Inhibition rate with Sarcoma cells (6.25 mg/kg/day i.p.) of 17.8%. In the data set on Sarcoma cells (12.5 mg/kg/day i.p.), this compound had an Inhibition rate of 57.6%. This compound also yielded an Inhibition rate in the data set on Sarcoma cells (25 mg/kg/day i.p.) of 65.4%. This compound also registered an Inhibition rate in the data set with Sarcoma cells (50 mg/kg/day i.p.) of 80.2%. In the data set with Sarcoma cells, the “Inhibition rate (%) (entry: toxic)” value was “Toxic (4/5)”, the ED30 was 6.7, the MTD was found to be 50 and the “Therapeutic index (MTD/ED30)” value stood at 7.5.
Turning to `CC(=O)NC1C(=O)[O][Pt]2([NH]C3CCCCC3[NH]2)[O]C1=O` (stereo not drawn) [Compound 1, [2-(acetylamino)malonato](trans-l-1,2-diaminocyclohexane)platinum (II)], in data set [1], the “influence on indices of renal functions such as the concentration of creatinine and ueas in blood” value is reported as “no influences”. Besides, the Inhibition rate was 28.4% in the data set with Sarcoma cells (3.12 mg/kg/day i.p.); 36.0% with Sarcoma cells (6.25 mg/kg/day i.p.); 52.3% in the data set on Sarcoma cells (12.5 mg/kg/day i.p.); 64.8% in the data set on Sarcoma cells (25 mg/kg/day i.p.); 89.4% in the data set with Sarcoma cells (50 mg/kg/day i.p.). In addition, the “Inhibition rate (%) (entry: toxic)” value in the data set with Sarcoma cells is given as “Toxic (5/5)”. The ED30 with Sarcoma cells was 3.6. The same compound yielded an MTD in the data set with Sarcoma cells of 50.
Consider `CC(=O)NC1(C)C(=O)[O][Pt-2]2([NH2+]C3CCCCC3[NH2+]2)[O]C1=O` (stereo not drawn) [Compound 3, [2-(acetylamino)-2-methylmalonato] (trans-l-1,2-diaminocyclohexane) platinum (II)], for which the Inhibition rate with Sarcoma cells (6.25 mg/kg/day i.p.) is reported as 26.4%; with Sarcoma cells (12.5 mg/kg/day i.p.), 49.7%; in the data set on Sarcoma cells (25 mg/kg/day i.p.), 63.5%; with Sarcoma cells (50 mg/kg/day i.p.) it was 80.7%. Moreover, in the data set on Sarcoma cells, the “Inhibition rate (%) (entry: toxic)” value is listed as “Toxic (5/5)”. In the data set with Sarcoma cells, this compound showed an ED30 of 7.0. Further, the MTD in the data set with Sarcoma cells is 50. The “Therapeutic index (MTD/ED30)” value with Sarcoma cells is on record as 7.1.

The values are drawn from US4882447A, “Novel organic platinum complex and process for the preparation thereof” (priority 1987, dated 1989).
